Measurements reported in US8592404B2, “Derivatives of porphyrin, particularly chlorins and/or bacteriochlorins, and uses thereof in photodynamic therapy” (Universidade de Coimbra, priority 2004, dated 2013).
Like-named read-outs stand apart in the source and are kept apart here.

Legend:
[1] = Fluorescence quantum yield; type: physicochemical
[2] = Lifetime of the triplet state in aqueous solution; type: physicochemical
[3] = Quantum yield of the formation of singlet oxygen (phosphorescence at 1270 nm versus reference photosensitizer TPPS); type: physicochemical; settings: deuterated aqueous solution
Excerpt: According to the present invention, the reference photosensitizer used in meso-tetrakis(3-sulfophenyl)porphyrin (TPPS) whereof the value for the quantum yield of the formation of singlet oxygen in deuterated water is 0.64 at 7.4 pH (photochem. Photobiol, 70: 391, 1999).

[4] = Lifetime of singlet oxygen; type: physicochemical; settings: in deuterated water
[5] = deuterated water, 7.4 pH; cited from earlier work

Row | Compound | Fluorescence quantum yield [1] | Lifetime of the triplet state ([2]; air-saturated aqueous solution) [μs] | Lifetime of the triplet state ([2]; nitrogen-saturated aqueous solution) [μs] | Quantum yield of the formation of singlet oxygen [3] | Lifetime of singlet oxygen [4] [μs] | Quantum yield of the formation of singlet oxygen [5]
1 | bacteriochlorin | 0.013 | 3.88 | 235 | greater than 30% | 65 | 
2 | O=S(=O)(O)c1cccc(-c2c3nc(c(-c4cccc(S(=O)(=O)O)c4)c4ccc([nH]4)c(-c4cccc(S(=O)(=O)O)c4)c4nc(c(-c5cccc(S(=O)(=O)O)c5)c5ccc2[nH]5)C=C4)C=C3)c1 [TPPS, meso-tetrakis(3-sulfophenyl)porphyrin] |  |  |  |  |  | 0.64
